Test results as given in patent EP0314008A2, “N-substituted aliphatic heterocyclic compounds able to facilitate the passage of active substances through physiological barriers” (priority 1987, dated 1989).

Assays:
[1] = system: serotonin; test: Test 74 - Antiserotonin (in vitro), isolated ileal segments; type: cell-based, guinea pig; conditions: Cavia porcellus, contractile response to serotonin (1 mcg/ml); for inhibition at 1 µg/mL: Dose 1 γ/ml
From the text: Test 74 - Antiserotonin (in vitro):

[2] = system: skin taken from a "nude" mouse
Description: (§1) This study was carried out by "in vitro" tests using a skin diffusion cell apparatus consisting of two glass segments separated by a layer of skin taken from a "nude" mouse, genetically without hair. Suspensions of the substance to be tested are deposited on the stratum corneum of the skin. The dermic layer dips into a buffer solution from which withdrawals are made at intervals to determine the quantity of substance which has passed through the epidermis.
(§2) 1-dodecylazacycloheptan-2-one (azone) is used as reference standard.
(§3) Suspensions at the required concentrations (0.5 and 1% w/v) are then prepared by ultrasonic treatment three times for 30 seconds in an ice bath with a titanium-tipped ultrasonic generator. The pHs of the 1 % suspensions in 0.1 M pH 7.0 phosphated buffer are as follows:
(§4) The volume of examined suspension applied externally to the skin is 1 ml. The volume of buffer solution in the cell lower chamber is 10 ml. After each withdrawal of 1 ml of solution from the lower chamber, the volume was made up to 10 ml by adding buffer.

[3] = system: skin taken from a "nude" mouse; test: skin permeability test in vitro, skin diffusion cell apparatus, passage of naproxen-Na; conditions: naproxen-Na passage with facilitating substance at 0.5%, second set
Description: as §1, §2, §3, §4

[4] = system: histamine; test: Test 73 - Antihistaminic (in vitro), isolated ileal segments; type: cell-based, guinea pig; conditions: Cavia porcellus, contractile response to histamine (0.5 mcg/ml)
From the text: Test 73 - Antihistaminic (in vitro):
Inhibition of submaximal contractile responses of isolated guinea pig ileal segments, bathed in physiological salt solution, to histamine (0.5 mcg/ml) by more than 80 percent (>80) indicates activity.

[5] = system: LTD4; test: Test 37 - LTD4 antagonist (in vitro), isolated ileal segments; type: cell-based, guinea pig; conditions: Cavia porcellus, contractile response to LTD4 (10 ng/ml)
From the text: Test 37 - LTD4 antagonist (in vitro):

CN1CCC(=C2c3ccccc3C=Cc3ccccc32)CC1 [Cyproheptadine, reference compound]
inhibition at 1 µg/mL [1]: 85%

CCCCCCCCCCCCN1CCSCC1 [Example 1, 4-dodecylthiomorpholine]
results compared with the compound of Example 3 [2]: practically equal results

CCCCCCCCCCCCN1CC[S+]([O-])CC1 [Example 2, 4-dodecylthiomorpholine-1-oxide]
F.U.a. 355.5 nm ([3]; 3.0 hours): 0.143 F.U.a.
nmoles passed ([3]; 3.0 hours): 366.0 nmol
F.U.a. 355.5 nm ([3]; 5.0 hours): 0.426 F.U.a.
nmoles passed ([3]; 5.0 hours): 1093.0 nmol
F.U.a. 355.5 nm ([3]; 7.0 hours): 0.755 F.U.a.
nmoles passed ([3]; 7.0 hours): 1968.0 nmol
F.U.a. 355.5 nm ([3]; […]): 0.033 F.U.a.
nmoles passed ([3]; […]): 82.5 nmol

CCCCCCCCCC(=O)N1CCSCC1 [Example 5, 4-decanoylthiomorpholide]
inhibition at 1 µg/mL ([4]; Dose 1 γ/ml): 18%
inhibition at 2.5 µg/mL ([4]; Dose 2.5 γ/ml): 82%
inhibition at 10 µg/mL ([4]; Dose 10 γ/ml): 100%
inhibition at 4 µg/mL ([5]; Dose 4 γ/ml): 28%
inhibition at 8 µg/mL ([5]; Dose 8 γ/ml): 75%
inhibition at 0.5 µg/mL ([1]; Dose 0.5 γ/ml): 68%
inhibition at 1 µg/mL [1]: 100%
inhibition at 2.5 µg/mL ([1]; Dose 2.5 γ/ml): 100%
inhibition at 10 µg/mL ([1]; Dose 10 γ/ml): 100%
